Assay results reported in article PMC5564600 (Oncotarget, 2017).

What was measured:
Test in all cases: biochemical
Assay type in all cases: binding
panel of 442 kinases [1] = target: T1, panel of 442 kinases (Homo sapiens, UniProt O15264); details: kinase p38-delta; for remaining activity at 1 µM: read-out: % of control at 1 µM
T1 construct: purchased Ambit Biosciences (scanMAXX KINOMEscan)
T1 sequence (O15264 1-365): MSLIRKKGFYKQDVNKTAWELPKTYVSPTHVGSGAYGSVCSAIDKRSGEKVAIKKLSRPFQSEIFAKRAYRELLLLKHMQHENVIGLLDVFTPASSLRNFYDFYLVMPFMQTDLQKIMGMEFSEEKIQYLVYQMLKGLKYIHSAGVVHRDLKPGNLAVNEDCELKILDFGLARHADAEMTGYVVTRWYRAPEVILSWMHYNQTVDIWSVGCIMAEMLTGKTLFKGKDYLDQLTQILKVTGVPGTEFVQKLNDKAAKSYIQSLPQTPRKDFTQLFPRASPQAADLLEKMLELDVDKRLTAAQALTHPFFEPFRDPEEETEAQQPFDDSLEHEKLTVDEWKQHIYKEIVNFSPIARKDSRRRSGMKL

panel of 442 kinases [2] = target: T2, panel of 442 kinases (Homo sapiens, UniProt Q8TDC3); details: BRSK1; for remaining activity at 1 µM: read-out: % of control at 1 µM
T2 construct: purchased Ambit Biosciences (scanMAXX KINOMEscan)
T2 sequence (Q8TDC3 1-778): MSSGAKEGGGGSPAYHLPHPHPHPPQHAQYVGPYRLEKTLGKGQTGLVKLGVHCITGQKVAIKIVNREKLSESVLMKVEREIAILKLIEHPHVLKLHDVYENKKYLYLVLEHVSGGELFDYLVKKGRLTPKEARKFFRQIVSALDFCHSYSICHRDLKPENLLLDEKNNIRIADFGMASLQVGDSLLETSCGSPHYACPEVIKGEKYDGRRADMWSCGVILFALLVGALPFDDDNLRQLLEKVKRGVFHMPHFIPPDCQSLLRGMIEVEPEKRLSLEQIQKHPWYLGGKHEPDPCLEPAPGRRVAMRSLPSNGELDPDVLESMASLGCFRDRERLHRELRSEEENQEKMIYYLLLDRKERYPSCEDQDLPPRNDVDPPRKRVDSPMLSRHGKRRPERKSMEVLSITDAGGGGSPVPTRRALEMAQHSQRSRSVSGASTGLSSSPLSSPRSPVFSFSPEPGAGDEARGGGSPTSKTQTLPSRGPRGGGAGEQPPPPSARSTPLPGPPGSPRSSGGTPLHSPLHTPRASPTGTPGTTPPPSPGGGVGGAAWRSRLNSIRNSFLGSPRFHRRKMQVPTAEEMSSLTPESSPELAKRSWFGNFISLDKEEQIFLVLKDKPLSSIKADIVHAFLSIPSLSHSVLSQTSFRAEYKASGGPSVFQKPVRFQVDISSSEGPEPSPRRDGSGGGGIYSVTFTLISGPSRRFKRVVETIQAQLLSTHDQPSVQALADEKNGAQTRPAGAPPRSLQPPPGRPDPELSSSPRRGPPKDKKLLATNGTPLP

panel of 442 kinases [3] = target: T3, panel of 442 kinases (Homo sapiens, UniProt Q13882); details: BRK; for remaining activity at 1 µM: read-out: % of control at 1 µM
T3 construct: purchased Ambit Biosciences (scanMAXX KINOMEscan)
T3 sequence (Q13882 whole entry): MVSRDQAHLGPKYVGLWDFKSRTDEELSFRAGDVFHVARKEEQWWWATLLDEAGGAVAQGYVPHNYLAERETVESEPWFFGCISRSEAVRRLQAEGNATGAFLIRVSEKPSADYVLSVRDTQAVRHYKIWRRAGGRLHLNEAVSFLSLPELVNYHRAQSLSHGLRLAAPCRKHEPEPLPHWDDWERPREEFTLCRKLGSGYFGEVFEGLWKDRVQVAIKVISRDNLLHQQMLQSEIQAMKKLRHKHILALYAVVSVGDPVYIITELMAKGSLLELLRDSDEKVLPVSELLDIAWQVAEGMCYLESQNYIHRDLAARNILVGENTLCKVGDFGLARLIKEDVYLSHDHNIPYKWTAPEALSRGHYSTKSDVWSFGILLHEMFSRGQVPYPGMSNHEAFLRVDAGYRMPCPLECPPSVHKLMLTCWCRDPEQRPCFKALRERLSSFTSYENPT

panel of 442 kinases [4] = target: T4, panel of 442 kinases (Homo sapiens, UniProt Q86Y07); details: kinase VRK2; for remaining activity at 1 µM: read-out: VRK2 (% of control at 1 µM)
T4 construct: purchased Ambit Biosciences (scanMAXX KINOMEscan)
T4 sequence (Q86Y07 whole entry): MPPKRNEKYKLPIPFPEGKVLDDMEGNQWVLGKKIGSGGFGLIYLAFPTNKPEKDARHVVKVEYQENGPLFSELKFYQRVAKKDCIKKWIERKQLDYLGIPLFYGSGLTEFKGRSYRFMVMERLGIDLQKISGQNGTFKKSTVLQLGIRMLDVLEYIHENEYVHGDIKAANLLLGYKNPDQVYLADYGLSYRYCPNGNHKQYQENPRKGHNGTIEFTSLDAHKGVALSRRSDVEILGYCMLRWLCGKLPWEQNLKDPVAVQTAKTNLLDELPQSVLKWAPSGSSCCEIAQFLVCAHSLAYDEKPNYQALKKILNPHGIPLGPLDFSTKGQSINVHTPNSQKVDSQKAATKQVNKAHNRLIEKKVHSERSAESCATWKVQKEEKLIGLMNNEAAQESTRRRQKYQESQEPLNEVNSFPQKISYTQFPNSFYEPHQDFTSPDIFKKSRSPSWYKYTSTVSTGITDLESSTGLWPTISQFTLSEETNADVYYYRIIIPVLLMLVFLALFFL

panel of 442 kinases [5] = target: T5, panel of 442 kinases (Homo sapiens, UniProt P00533, DEL746-750); details: EGFR(E746-A750del); for remaining activity at 1 µM: read-out: % of control at 1 µM
T5 construct: purchased Ambit Biosciences (scanMAXX KINOMEscan)

panel of 442 kinases [6] = target: T6, panel of 442 kinases (Homo sapiens, UniProt P21802); details: FGFR2; for remaining activity at 1 µM: read-out: % of control at 1 µM
T6 construct: purchased Ambit Biosciences (scanMAXX KINOMEscan)
T6 sequence (P21802 22-821): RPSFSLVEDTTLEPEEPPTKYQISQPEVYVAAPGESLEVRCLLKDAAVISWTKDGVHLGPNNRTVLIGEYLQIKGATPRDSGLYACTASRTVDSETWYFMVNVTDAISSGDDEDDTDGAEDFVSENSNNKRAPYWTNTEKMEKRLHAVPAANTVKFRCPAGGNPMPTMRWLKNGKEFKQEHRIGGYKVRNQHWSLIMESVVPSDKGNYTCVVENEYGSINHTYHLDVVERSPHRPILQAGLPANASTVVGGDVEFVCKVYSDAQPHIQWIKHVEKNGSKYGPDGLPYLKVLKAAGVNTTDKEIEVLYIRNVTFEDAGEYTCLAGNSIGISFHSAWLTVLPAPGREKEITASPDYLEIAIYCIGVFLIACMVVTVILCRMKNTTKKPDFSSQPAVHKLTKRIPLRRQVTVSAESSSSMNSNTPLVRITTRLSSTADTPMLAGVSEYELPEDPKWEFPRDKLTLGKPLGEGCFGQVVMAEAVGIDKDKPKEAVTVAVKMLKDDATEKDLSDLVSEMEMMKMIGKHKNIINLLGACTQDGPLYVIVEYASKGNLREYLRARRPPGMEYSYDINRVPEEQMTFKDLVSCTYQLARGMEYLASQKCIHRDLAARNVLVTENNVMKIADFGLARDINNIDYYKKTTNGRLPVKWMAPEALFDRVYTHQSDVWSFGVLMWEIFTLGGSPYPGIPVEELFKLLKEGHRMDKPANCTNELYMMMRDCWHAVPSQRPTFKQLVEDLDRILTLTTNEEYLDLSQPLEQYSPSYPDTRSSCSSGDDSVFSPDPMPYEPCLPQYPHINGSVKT

panel of 442 kinases [7] = target: T7, panel of 442 kinases (Homo sapiens, UniProt P24723); details: kinase PRKCH; for remaining activity at 1 µM: read-out: PRKCH (% of control at 1 µM)
T7 construct: purchased Ambit Biosciences (scanMAXX KINOMEscan)
T7 sequence (P24723 whole entry): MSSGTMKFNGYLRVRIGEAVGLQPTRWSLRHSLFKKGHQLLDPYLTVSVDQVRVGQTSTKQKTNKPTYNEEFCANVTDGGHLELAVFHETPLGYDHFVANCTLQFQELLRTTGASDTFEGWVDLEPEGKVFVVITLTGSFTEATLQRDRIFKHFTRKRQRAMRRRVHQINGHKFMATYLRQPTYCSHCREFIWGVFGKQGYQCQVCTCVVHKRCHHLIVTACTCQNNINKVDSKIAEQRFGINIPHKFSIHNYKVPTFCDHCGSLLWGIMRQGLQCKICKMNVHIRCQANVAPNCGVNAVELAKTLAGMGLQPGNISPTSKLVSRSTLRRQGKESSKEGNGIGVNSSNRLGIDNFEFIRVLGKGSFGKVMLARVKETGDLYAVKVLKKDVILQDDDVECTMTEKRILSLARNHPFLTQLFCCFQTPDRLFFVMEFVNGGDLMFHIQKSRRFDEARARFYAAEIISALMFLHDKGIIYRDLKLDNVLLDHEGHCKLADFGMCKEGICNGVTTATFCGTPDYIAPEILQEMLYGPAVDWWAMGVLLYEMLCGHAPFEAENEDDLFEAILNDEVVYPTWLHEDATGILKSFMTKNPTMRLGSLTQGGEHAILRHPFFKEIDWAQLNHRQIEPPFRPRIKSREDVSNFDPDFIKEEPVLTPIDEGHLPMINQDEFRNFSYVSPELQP

panel of 442 kinases [8] = target: T8, panel of 442 kinases (Homo sapiens, UniProt P00533, G719C); details: EGFR(G719C); for remaining activity at 1 µM: read-out: % of control at 1 µM
T8 construct: purchased Ambit Biosciences (scanMAXX KINOMEscan)
T8 sequence (P00533 25-1210 G719C): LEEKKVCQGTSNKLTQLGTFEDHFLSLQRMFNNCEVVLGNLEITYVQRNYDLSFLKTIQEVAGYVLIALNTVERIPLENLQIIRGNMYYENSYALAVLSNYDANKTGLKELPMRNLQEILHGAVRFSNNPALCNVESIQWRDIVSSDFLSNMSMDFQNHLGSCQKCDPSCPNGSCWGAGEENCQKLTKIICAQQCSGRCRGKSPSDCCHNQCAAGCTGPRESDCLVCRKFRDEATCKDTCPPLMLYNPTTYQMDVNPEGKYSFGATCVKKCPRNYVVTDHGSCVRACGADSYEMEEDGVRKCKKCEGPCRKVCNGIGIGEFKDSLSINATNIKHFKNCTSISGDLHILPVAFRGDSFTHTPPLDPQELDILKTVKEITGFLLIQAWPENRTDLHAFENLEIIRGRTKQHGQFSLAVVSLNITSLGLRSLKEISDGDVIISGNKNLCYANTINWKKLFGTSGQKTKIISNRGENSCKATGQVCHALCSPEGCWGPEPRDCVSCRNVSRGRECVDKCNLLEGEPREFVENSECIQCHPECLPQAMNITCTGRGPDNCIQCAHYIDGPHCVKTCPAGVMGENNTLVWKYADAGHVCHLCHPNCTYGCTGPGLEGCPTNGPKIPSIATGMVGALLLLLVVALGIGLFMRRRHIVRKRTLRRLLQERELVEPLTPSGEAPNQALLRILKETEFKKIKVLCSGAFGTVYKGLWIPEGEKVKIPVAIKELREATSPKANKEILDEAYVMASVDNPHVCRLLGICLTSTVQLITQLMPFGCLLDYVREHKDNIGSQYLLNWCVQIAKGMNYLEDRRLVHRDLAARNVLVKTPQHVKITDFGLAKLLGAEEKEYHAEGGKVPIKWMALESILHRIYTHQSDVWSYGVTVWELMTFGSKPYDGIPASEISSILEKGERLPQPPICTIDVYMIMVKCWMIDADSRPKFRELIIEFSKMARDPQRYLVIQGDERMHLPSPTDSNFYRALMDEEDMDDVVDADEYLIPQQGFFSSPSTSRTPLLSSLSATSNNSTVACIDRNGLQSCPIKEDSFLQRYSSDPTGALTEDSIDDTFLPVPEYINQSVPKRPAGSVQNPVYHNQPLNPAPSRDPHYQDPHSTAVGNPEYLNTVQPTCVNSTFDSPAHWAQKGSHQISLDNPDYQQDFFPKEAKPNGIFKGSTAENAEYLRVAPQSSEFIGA

panel of 442 kinases [9] = target: T9, panel of 442 kinases (Homo sapiens, UniProt Q8TD08); details: ERK8; for remaining activity at 1 µM: read-out: % of control at 1 µM
T9 construct: purchased Ambit Biosciences (scanMAXX KINOMEscan)
T9 sequence (Q8TD08 1-544): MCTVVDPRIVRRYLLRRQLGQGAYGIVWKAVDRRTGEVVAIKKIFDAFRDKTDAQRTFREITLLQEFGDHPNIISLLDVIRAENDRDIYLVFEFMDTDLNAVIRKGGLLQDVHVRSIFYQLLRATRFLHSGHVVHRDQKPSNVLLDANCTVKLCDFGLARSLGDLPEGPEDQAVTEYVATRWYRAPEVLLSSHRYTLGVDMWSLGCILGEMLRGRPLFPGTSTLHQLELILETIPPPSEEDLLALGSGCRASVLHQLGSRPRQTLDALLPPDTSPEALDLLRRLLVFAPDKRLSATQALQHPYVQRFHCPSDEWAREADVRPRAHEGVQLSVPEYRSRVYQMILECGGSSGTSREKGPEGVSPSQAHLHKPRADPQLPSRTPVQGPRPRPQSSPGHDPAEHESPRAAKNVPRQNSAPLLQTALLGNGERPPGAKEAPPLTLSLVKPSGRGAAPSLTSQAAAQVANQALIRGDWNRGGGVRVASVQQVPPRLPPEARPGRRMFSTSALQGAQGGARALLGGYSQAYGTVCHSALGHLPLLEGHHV

panel of 442 kinases [10] = target: T10, panel of 442 kinases (Homo sapiens, UniProt Q14680); details: kinase MELK; for remaining activity at 1 µM: read-out: % of control at 1 µM
T10 construct: purchased Ambit Biosciences (scanMAXX KINOMEscan)
T10 sequence (Q14680 whole entry): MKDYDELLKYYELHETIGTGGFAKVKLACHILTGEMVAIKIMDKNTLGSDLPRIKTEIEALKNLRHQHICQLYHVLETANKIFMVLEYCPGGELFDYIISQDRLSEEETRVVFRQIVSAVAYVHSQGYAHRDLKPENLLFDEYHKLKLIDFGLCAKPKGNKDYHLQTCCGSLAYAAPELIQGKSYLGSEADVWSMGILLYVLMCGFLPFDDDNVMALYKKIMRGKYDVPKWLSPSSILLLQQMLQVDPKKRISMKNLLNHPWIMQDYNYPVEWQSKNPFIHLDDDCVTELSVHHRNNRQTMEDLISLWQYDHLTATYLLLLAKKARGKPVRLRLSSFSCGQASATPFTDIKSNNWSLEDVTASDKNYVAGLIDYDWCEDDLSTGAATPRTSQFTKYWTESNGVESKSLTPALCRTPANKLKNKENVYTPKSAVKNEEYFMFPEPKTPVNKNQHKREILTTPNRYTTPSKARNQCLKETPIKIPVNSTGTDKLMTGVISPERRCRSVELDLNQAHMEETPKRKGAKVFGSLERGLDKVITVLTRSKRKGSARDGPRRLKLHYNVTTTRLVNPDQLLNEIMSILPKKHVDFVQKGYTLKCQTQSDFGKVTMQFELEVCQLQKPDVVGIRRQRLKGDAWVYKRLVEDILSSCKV

panel of 442 kinases [11] = target: T11, panel of 442 kinases (Homo sapiens, UniProt P41240); details: CSK; for remaining activity at 1 µM: read-out: % of control at 1 µM
T11 construct: purchased Ambit Biosciences (scanMAXX KINOMEscan)
T11 sequence (P41240 whole entry): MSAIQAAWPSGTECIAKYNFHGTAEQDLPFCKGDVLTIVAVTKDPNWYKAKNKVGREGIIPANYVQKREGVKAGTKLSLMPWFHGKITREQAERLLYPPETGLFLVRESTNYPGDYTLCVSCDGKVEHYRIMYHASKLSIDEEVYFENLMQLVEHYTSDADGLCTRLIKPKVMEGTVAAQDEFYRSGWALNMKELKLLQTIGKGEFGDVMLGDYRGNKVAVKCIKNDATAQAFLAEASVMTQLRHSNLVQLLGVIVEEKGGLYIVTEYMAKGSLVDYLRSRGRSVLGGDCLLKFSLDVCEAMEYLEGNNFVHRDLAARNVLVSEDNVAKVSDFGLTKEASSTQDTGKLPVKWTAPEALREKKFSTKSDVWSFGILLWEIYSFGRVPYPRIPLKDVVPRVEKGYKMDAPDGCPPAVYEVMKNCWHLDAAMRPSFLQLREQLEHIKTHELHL

[12] = 10 µM, read-out: % of control at 10 µM

Compound | remaining activity at 1 µM (panel of 442 kinases [1]) | remaining activity at 1 µM (panel of 442 kinases [2]) | remaining activity at 1 µM (panel of 442 kinases [3]) | remaining activity at 1 µM (panel of 442 kinases [4]) | remaining activity at 1 µM (panel of 442 kinases [5]) | remaining activity at 1 µM (panel of 442 kinases [6]) | remaining activity at 1 µM (panel of 442 kinases [7]) | remaining activity at 1 µM (panel of 442 kinases [8]) | remaining activity at 1 µM (panel of 442 kinases [9]) | remaining activity at 1 µM (panel of 442 kinases [10]) | remaining activity at 1 µM (panel of 442 kinases [11]) | also measured
Nc1cc(C(F)(F)F)c(-c2cc(N3CCOCC3)nc(N3CCOCC3)n2)cn1 [Buparlisib] | 73% | 100% | 100% | 83% | 100% | 98% | 99% | 84% | 100% | 90% | 94% | remaining activity at 10 µM (panel of 442 kinases [1]; [12]): 100%; remaining activity at 10 µM (panel of 442 kinases [2]; [12]): 100%; remaining activity at 10 µM (panel of 442 kinases [3]; [12]): 100%; remaining activity at 10 µM (panel of 442 kinases [4]; 10 µM, read-out: VRK2 (% of control at 10 µM)): 100%; remaining activity at 10 µM (panel of 442 kinases [5]; [12]): 100%; remaining activity at 10 µM (panel of 442 kinases [6]; [12]): 100%; remaining activity at 10 µM (panel of 442 kinases [7]; 10 µM, read-out: PRKCH (% of control at 10 µM)): 100%; remaining activity at 10 µM (panel of 442 kinases [8]; [12]): 83%; remaining activity at 10 µM (panel of 442 kinases [9]; [12]): 100%; remaining activity at 10 µM (panel of 442 kinases [10]; [12]): 91%; remaining activity at 10 µM (panel of 442 kinases [11]; [12]): 100%
Cn1c(=O)n(-c2ccc(C(C)(C)C#N)cc2)c2c3cc(-c4cnc5ccccc5c4)ccc3ncc21 [Dactolisib, 2-methyl-2-[4-(3-methyl-2-oxo-8-quinolin-3-yl-2,3-dihydroimidazo[4,5-c]quinolin-1-yl)-phenyl] propionitrile] | 56% | 83% | 90% | 83% | 100% | 100% | 78% |  | 86% | 45% | 81% | 
COc1ncc(-c2ccc3nccc(-c4ccnnc4)c3c2)cc1NS(=O)(=O)c1ccc(F)cc1F [Omipalisib] | 94% | 100% | 91% | 100% | 97% | 100% | 100% | 100% | 100% | 100% | 98% | 
FC(F)c1nc2ccccc2n1-c1nc(N2CCOCC2)nc(N2CCOCC2)n1 [ZSTK474, 2-(difluoromethyl)-1-[4,6-di(4-morpholinyl)-1,3,5-triazin-2-yl]-1H-benzimidazole] | 100% | 98% | 91% | 100% | 94% | 100% | 98% | 97% | 100% | 100% | 89% | 
